Experimental data reported in patent US20210277003A1, “OGA INHIBITOR COMPOUNDS” (Janssen Pharmaceutica NV, priority 2018, published 2021).

Legend:
[1] = target: T1, recombinant human Meningioma Expressed Antigen 5 (MGEA5), also referred to as O-GlcNAcase (OGA) (Homo sapiens, UniProt O60502); experiment: OGA biochemical assay: inhibition of hydrolysis of fluorescein mono-ß-D-N-Acetyl-Glucosamine (FM-GlcNAc), fluorescence readout; conditions: FM-GlcNAc substrate; for Emax: read-out: Enzymatic Emax (%); for IC50: read-out: Enzymatic hOGA, pIC50 (converted)
T1 construct: Full length OGA enzyme was purchased at OnGene (cat #TP322411); purchased OnGene (so in the source)
T1 sequence (O60502 1-916): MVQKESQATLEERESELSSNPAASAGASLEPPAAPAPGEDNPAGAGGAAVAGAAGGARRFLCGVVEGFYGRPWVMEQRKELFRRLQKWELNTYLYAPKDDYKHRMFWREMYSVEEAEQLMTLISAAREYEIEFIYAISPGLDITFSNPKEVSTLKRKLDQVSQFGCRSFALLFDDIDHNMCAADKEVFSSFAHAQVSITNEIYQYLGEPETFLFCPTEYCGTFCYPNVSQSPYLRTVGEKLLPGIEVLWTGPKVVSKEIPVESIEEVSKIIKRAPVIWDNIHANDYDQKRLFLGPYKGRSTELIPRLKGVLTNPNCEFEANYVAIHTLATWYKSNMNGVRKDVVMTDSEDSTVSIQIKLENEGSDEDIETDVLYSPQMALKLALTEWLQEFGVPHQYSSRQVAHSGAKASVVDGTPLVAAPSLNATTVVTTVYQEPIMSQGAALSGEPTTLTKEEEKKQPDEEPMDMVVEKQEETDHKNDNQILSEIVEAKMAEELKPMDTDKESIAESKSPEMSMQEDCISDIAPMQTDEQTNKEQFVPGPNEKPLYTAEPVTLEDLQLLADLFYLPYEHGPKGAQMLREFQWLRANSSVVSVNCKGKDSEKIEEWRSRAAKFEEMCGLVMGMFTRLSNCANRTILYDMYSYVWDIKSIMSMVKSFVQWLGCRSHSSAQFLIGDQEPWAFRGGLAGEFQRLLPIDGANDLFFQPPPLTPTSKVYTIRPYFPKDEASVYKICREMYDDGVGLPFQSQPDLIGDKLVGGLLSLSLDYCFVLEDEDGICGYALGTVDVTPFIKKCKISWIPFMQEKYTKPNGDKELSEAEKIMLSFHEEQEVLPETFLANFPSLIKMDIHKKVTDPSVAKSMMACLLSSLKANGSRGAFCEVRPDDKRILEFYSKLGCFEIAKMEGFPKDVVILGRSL
In short: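 Full-length recombinant human OGA (2 nM) was pre-incubated with compound for 60 min, then reacted with 100 uM FM-GlcNAc for 6 h at room temperature in 200 mM citrate/phosphate pH 7.2 with 0.005% Tween-20. Reactions were stopped with pH 11.0 carbonate and fluorescein read at 485/538 nm. IC50 and Hill coefficient came from curve fitting.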

[2] = system: OGA in HEK293 cells inducible for P301L mutant human Tau (isoform 2N4R); experiment: OGA cellular assay: immunocytochemical detection of O-GlcNAcylated proteins (CTD110.6 antibody); assay type: cell-based; conditions: 6 hours incubation; for Emax / EC50: Homo sapiens, HEK293, 6 h; for Emax: maximum = Thiamet G 200 uM; for EC50: read-out: Cellular hOGA, pEC50 (converted)
In short: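 Cells seeded 2 days ahead in low-glucose assay medium and exposed to compounds for 6 h at 0.2% DMSO, then PFA-fixed and immunostained. Signal is 488 nm intensity from imaging (9 fields/well), with Hoechst nuclei counts as a toxicity check. IC50 from non-linear regression, with 200 uM Thiamet G per plate as maximum inhibition.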

Row | Enzymatic hOGA; pIC50 [1] | Emax [1] | IC50 [1] | SMILES | Emax [2] | EC50 [2] | Cellular hOGA; pEC50 [2]
1 | 7.56 | 102% | – | CC[C@@H](O)Cn1ccc2c(Nc3c(C)cc(C#N)cc3Cl)nccc21 [Compound 123a] | 63.8% | 437 nM | –
2 | 7.8 | 104% | – | Fc1cc(Cl)c(Nc2nccc3c2ccn3CC2CCOC2)c(Cl)c1 (stereo not drawn) [Compound 139] | 69.7% | 398 nM | –
3 | – | 103% | 3.8 nM | CCCCn1ccc2c(Nc3c(C)cc(C)c(Br)c3C)nccc21 [Compound 66] | 84% | 186 nM | –
4 | – | 100% | 28.8 nM | CCCCn1ccc2c(Nc3c(C)ccnc3C)ncc(F)c21 [Compound 80] | 73% | 372 nM | –
5 | – | 103% | 11.7 nM | Cc1cncc(C)c1Nc1nccc2c1ccn2CCC1CC1 [Compound 49] | 63% | 79.4 nM | –
6 | 7.2 | 99.6% | – | Cc1ccnc(C(F)F)c1Nc1nccc2c1ccn2CC1CC(F)(F)C1 [Compound 115] | 52.3% | ~891 nM | –
7 | – | 101% | 21.9 nM | CCCCn1ccc2c(Nc3c(C)cncc3C(F)(F)F)nccc21 [Compound 86] | 71% | 309 nM | –
8 | 7.9 | 101% | – | FC(F)CCn1ccc2c(Nc3c(Cl)cccc3Cl)nccc21 [Compound 97] | 78% | 347 nM | –
9 | – | 102% | 3.39 nM | Clc1cccc(Cl)c1Nc1nccc2c1ccn2CC1CC1 [Compound 69] | 82% | 55 nM | –
10 | – | 102% | 11.2 nM | CCCCn1ccc2c(Nc3c(Cl)ccc4c3OCCO4)nccc21 [Compound 51] | 76% | 117 nM | –
11 | 8.81 | 98.6% | – | Cc1ccnc(C(C)C)c1Nc1nccc2c1ccn2CC(C)(F)F [Compound 147] | 90.9% | ~4.47 nM | –
12 | – | 102% | 81.3 nM | COCCn1ccc2c(Nc3c(Cl)cccc3Cl)nccc21 [Compound 40] | 30% | > 1000 nM | –
13 | – | 101% | 79.4 nM | Cn1ccc(-n2ccc3c(Nc4c(Cl)cc(F)cc4Cl)nccc32)n1 [Compound 184] | 46.5% | 912 nM | –
14 | – | 101% | 4.37 nM | CCCCn1ccc2c(Nc3c(C)ccc(C(=O)N(C)C)c3C)nccc21 [Compound 59] | 88% | 100 nM | –
15 | – | 102% | 17 nM | Cn1cnc(-n2ccc3c(Nc4c(Cl)cccc4Cl)nccc32)c1 [Compound 167] | 81.9% | ~224 nM | –
16 | – | 103% | 10.5 nM | CCCCn1ccc2c(Nc3c(C)cc4c(c3C)C(=O)N(C)C4)nccc21 [Compound 45] | 87% | 16.6 nM | –
17 | 7.88 | 103% | – | CC[C@@H](O)Cn1ccc2c(Nc3c(C)cc(C(F)(F)F)cc3C)nccc21 [Compound 124a] | 74.7% | 21.9 nM | –
18 | 8.42 | 105% | – | CCC(C)Cn1ccc2c(Nc3c(Cl)cccc3Cl)nccc21.Cl (stereo not drawn) [Compound 9] | 85% | 30.2 nM | –
19 | – | 102% | 5.89 nM | Cc1ccnc(C)c1Nc1nccc2c1ccn2CC1CCO1 (single isomer, unassigned) [Compound 25a] | 92% | – | 7.3
20 | – | 101% | 51.3 nM | CCCCn1ccc2c(Nc3c(C)ccc4c3nc(C)n4C)nccc21 [Compound 206] | 63.7% | 661 nM | –
21 | 7.25 | 100% | – | Cc1ccnc(C)c1Nc1nccc2c1ccn2CC(C)O (stereo not drawn) [Compound 144] | 79% | 182 nM | –
22 | – | 101% | 3.09 nM | CCCCn1ccc2c(Nc3c(C)ccc(C(=O)NC)c3C)nccc21 [Compound 58] | 88% | 72.4 nM | –
23 | 8.46 | 102% | – | CC[C@H](O)Cn1ccc2c(Nc3c(C)cc(F)cc3C)nccc21 [Compound 145b] | 85.7% | 26.9 nM | –
24 | – | 104% | 3.8 nM | CCCCn1ccc2c(Nc3c(C)cc(C)cc3C)nccc21 [Compound 68] | 87% | 57.5 nM | –
25 | 7.98 | 104% | – | Cc1cc(OC(F)F)cc(Cl)c1Nc1nccc2c1ccn2CC1CC(F)(F)C1 [Compound 116] | 61.8% | 55 nM | –
26 | – | 102% | 2.82 nM | CCCCn1ccc2c(Nc3c(C)cc(C(=O)N4CCCC4)cc3C)nccc21 [Compound 75] | 85% | 6.03 nM | –
27 | – | 104% | 4.9 nM | Cc1ccnc(C(F)(F)F)c1Nc1nccc2c1ccn2CCC1CC1 [Compound 197] | 86.3% | 56.2 nM | –
28 | 8.9 | 106% | – | CCC(F)(F)Cn1ccc2c(Nc3c(Cl)cccc3Cl)nccc21 [Compound 113] | 93% | 7.94 nM | –
29 | – | 102% | 2.24 nM | Cc1cc(C(F)(F)F)nc(C)c1Nc1nccc2c1ccn2CC(F)(F)C(C)C [Compound 185] | 99.8% | 9.77 nM | –
30 | – | 102% | 10.7 nM | Cc1cncc(C)c1Nc1nccc2c1ccn2CCC(C)C [Compound 48] | 86% | 30.9 nM | –
